Experimental data published in patent publication US9278950B2, “Bicyclic aromatic carboxamide compounds useful as Pim kinase inhibitors” (Incyte Corporation, priority 2013, dated 2016).

Tests used:
Format in all cases: biochemical
[1] = molecular target: T1, Pim-1 (Homo sapiens, UniProt P11309); assay: Pim-1 kinase assay (Pim enzyme assays, Example A); details: 1 mM ATP; read-out: Pim1 IC50
T1 construct: purchased Invitrogen PV3503
Method: (§1) Pim-1 and Pim-3 kinase assays-20 μL reactions were run in white 384 well polystyrene plates dotted with 0.8 μL compound/DMSO in the assay buffer (50 mM Tris, pH 7.5, 0.01% Tween-20, 5 mM mgCl2, 0.01% BSA, 5 mM DTT), containing 0.05 μM Biotin-labeled BAD peptide substrate (AnaSpec 62269), 1 mM ATP, and […] (Pim-1, Invitrogen PV3503) or […] (Pim-3, Millipore 14-738) enzyme for 1 h at 25° C. Reactions were stopped by addition of 10 μL STOP Buffer (150 mM Tris, pH=7.5, 150 mM NaCl, 75 mM EDTA, 0.01% Tween-20, 0.3% BSA,) supplemented with Phospho-Bad (Ser 12) Antibody (Cell Signaling 9291) diluted 666-fold, and Streptavidin donor beads (PerkinElmer 6760002) along with Protein-A acceptor beads (PerkinElmer 6760137) at 15 μg/mL each. Supplementation of the STOP buffer with beads and stopping the reactions were done under reduced light. Prior to the stopping reactions STOP buffer with beads was preincubated for 1 h in the dark at room temperature. After stopping the reactions, plates were incubated for 1 h in the dark at room temperature before reading on a PHERAstar FS plate reader (BMG Labtech) under reduced light.

[2] = molecular target: T2, Pim-3 (Homo sapiens, UniProt Q86V86); assay: Pim-3 kinase assay (Pim enzyme assays, Example A); details: 1 mM ATP; read-out: Pim3 IC50
T2 construct: purchased Millipore 14-738
Method: as §1

[3] = molecular target: T3, Pim2 (Homo sapiens, UniProt Q9P1W9); assay: Pim-2 kinase assay (Pim enzyme assays, Example A); details: 1 mM ATP; read-out: Pim2 IC50
T3 construct: purchased Invitrogen PV3649
Method: Pim-2 kinase assay—20 μL reactions were run in white 384 well polystyrene plates dotted with 0.8 μL compound/DMSO in the assay buffer (50 mM Tris, pH 7.5, 0.01% Tween-20, 5 mM mgCl2, 0.01% BSA, 5 mM DTT), containing 0.05 μM Fluorescein-labeled CREBtide peptide substrate (Invitrogen PV3508), 1 mM ATP, and 1 nM enzyme (Invitrogen PV3649) for 2 h at 25° C. Reactions were stopped by addition of 10 μL TR-FRET Dilution Buffer (Invitrogen PV3574) with 30 mM EDTA and 1.5 nM LanthaScreen Tb-CREB pSer133 antibody (Invitrogen PV3566). After 30 min. incubation at room temperature, plates were read on a PHERAstar FS plate reader (BMG Labtech).

T1 sequence (P11309 whole entry): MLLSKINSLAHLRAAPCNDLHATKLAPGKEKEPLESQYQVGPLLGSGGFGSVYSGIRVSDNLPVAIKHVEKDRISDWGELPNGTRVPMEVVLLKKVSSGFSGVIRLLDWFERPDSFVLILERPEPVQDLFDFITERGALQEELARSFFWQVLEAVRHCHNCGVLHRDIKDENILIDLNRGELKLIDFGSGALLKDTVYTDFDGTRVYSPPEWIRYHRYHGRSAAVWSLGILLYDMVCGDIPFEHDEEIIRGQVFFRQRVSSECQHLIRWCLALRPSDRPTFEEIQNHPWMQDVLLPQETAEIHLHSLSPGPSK
T3 sequence (Q9P1W9 whole entry): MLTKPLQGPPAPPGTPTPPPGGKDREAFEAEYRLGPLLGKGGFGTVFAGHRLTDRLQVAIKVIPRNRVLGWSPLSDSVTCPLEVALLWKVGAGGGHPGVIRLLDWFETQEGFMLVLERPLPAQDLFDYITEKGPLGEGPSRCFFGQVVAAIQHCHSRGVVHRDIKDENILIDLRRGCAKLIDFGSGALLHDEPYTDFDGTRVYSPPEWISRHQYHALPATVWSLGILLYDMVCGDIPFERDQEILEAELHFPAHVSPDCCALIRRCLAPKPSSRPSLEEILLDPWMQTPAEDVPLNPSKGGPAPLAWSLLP

| SMILES | IC50 [1] [nM] | IC50 [2] [nM] | IC50 [3] [nM] |
| --- | --- | --- | --- |
| Nc1cc2ccc(Br)cc2nc1C(=O)Nc1cnccc1N1CCC[C@H](N)C1 [Example 12, 3-Amino-N-{4-[(3S)-3-aminopiperidin-1-yl]pyridin-3-yl}-7-bromoquinoline-2-carboxamide] | ≤ 100 | ≤ 100 | 100 to 1000 |
| CC(O)c1ccc2cc(N)c(C(=O)Nc3cnccc3N3CCC[C@H](N)C3)nc2c1 (stereo partly drawn) [Example 15, 3-Amino-N-{4-[(3S)-3-aminopiperidin-1-yl]pyridin-3-yl}-7-(1-hydroxyethyl)quinoline-2-carboxamide] | ≤ 100 | ≤ 100 | 100 to 1000 |
| CC(C)c1ccc2cc(N)c(C(=O)Nc3cnccc3N3CCC[C@H](N)C3)nc2c1 [Example 9, 3-Amino-N-{4-[(3S)-3-aminopiperidin-1-yl]pyridin-3-yl}-7-isopropylquinoline-2-carboxamide] | ≤ 100 | ≤ 100 | ≤ 100 |
| C[C@@H]1C[C@H](N)CN(c2ccncc2NC(=O)c2nc3cc(N4CCOCC4=O)ccc3cc2N)C1 [Example 50, 3-Amino-N-{4-[(3S,5R)-3-amino-5-methylpiperidin-1-yl]pyridin-3-yl}-7-(3-oxomorpholin-4-yl)quinoline-2-carboxamide] | ≤ 100 | ≤ 100 | 100 to 1000 |
| CN1CCN(c2ccc3cc(N)c(C(=O)Nc4cnccc4N4C[C@@H](N)C[C@@H](C(F)(F)F)C4)nc3c2)CC1 [Example 37, 3-Amino-N-{4-[(3S,5R)-3-amino-5-(trifluoromethyl)piperidin-1-yl]pyridin-3-yl}-7-(4-methylpiperazin-1-yl)quinoline-2-carboxamide] | ≤ 100 | ≤ 100 | 100 to 1000 |
| Nc1cc2ccc(CN3CCOCC3)cc2nc1C(=O)Nc1cnccc1N1CCC[C@H](N)C1 [Example 21, 3-Amino-N-{4-[(3S)-3-aminopiperidin-1-yl]pyridin-3-yl}-7-(morpholin-4-ylmethyl)quinoline-2-carboxamide] | ≤ 100 | ≤ 100 | 100 to 1000 |
| CCc1ccc2cc(N)c(C(=O)Nc3cnccc3C3CCCC(N)C3)nc2c1 (stereo not drawn) [Example 23, 3-Amino-N-[4-(3-aminocyclohexyl)pyridin-3-yl]-7-ethylquinoline-2-carboxamide] | ≤ 100 | ≤ 100 | 100 to 1000 |
| Nc1cc2ccc(N3CCOCC3)cc2nc1C(=O)Nc1cnccc1N1C[C@@H](N)C[C@@H](C(F)(F)F)C1 [Example 35, 3-Amino-N-{4-[(3S,5R)-3-amino-5-(trifluoromethyl)piperidin-1-yl]pyridin-3-yl}-7-morpholin-4-ylquinoline-2-carboxamide] | ≤ 100 | ≤ 100 | 100 to 1000 |
| C[C@@H]1C[C@H](N)CN(c2ccncc2NC(=O)c2nc3cc(N4CCNC(=O)C4)ccc3cc2N)C1 [Example 47, 3-Amino-N-{4-[(3S,5R)-3-amino-5-methylpiperidin-1-yl]pyridin-3-yl}-7-(3-oxopiperazin-1-yl)quinoline-2-carboxamide] | ≤ 100 | ≤ 100 | 100 to 1000 |
| C[C@@H]1C[C@H](N)CN(c2ccncc2NC(=O)c2nc3cc(C4CCOCC4)ccc3cc2N)C1 [Example 40, 3-Amino-N-{4-[(3S,5R)-3-amino-5-methylpiperidin-1-yl]pyridin-3-yl}-7-(tetrahydro-2H-pyran-4-yl)quinoline-2-carboxamide] | ≤ 100 | ≤ 100 | ≤ 100 |
| C[C@@H]1C[C@H](N)CN(c2ccncc2NC(=O)c2nc3cc(N4CCN(C)CC4)ccc3cc2N)C1 [Example 36, 3-Amino-N-{4-[(3S,5R)-3-amino-5-methylpiperidin-1-yl]pyridin-3-yl}-7-(4-methylpiperazin-1-yl)quinoline-2-carboxamide] | ≤ 100 | ≤ 100 | ≤ 100 |
| CCc1ccc2cc(N)c(C(=O)Nc3cncc(C#N)c3N3CCC[C@H](N)C3)nc2c1 [Example 32, 3-Amino-N-{4-[(3S)-3-aminopiperidin-1-yl]-5-cyanopyridin-3-yl}-7-ethylquinoline-2-carboxamide] | ≤ 100 | ≤ 100 | > 2000 |
| CCOc1ccc2cc(N)c(C(=O)Nc3cnccc3N3C[C@@H](N)[C@H](O)[C@@H](C)C3)nc2n1 [Example 26, 3-Amino-N-{4-[(3R,4R,5S)-3-amino-4-hydroxy-5-methylpiperidin-1-yl]pyridin-3-yl}-7-ethoxy-1,8-naphthyridine-2-carboxamide] | ≤ 100 | ≤ 100 |  |
| Nc1cc2ccc(C3CCOCC3)cc2nc1C(=O)Nc1cnccc1N1C[C@@H](N)C[C@@H](C(F)(F)F)C1 [Example 39, 3-Amino-N-{4-[(3S,5R)-3-amino-5-(trifluoromethyl)piperidin-1-yl]pyridin-3-yl}-7-(tetrahydro-2H-pyran-4-yl)quinoline-2-carboxamide] | ≤ 100 | ≤ 100 | ≤ 100 |
| CCc1ccc2cc(N)c(C(=O)Nc3cnccc3N3C[C@@H](N)[C@@H](NC(=O)OC)[C@@H](C)C3)nc2c1 [Example 58, Methyl [(3R,4S,5S)-3-amino-1-(3-{[(3-amino-7-ethylquinolin-2-yl)carbonyl]amino}pyridin-4-yl)-5-methylpiperidin-4-yl]carbamate] | ≤ 100 | ≤ 100 | 100 to 1000 |
| C[C@H]1CN(c2ccncc2NC(=O)c2nc3cc(C4CCOCC4)ccc3cc2N)C[C@@H](N)[C@H]1n1ccnn1 [Example 53, 3-Amino-N-{4-[(3R,4S,5S)-3-amino-5-methyl-4-(1H-1,2,3-triazol-1-yl)piperidin-1-yl]pyridin-3-yl}-7-(tetrahydro-2H-pyran-4-yl)quinoline-2-carboxamide] | ≤ 100 | ≤ 100 | 1000 to 10000 |
| CCc1cc2nc(C(=O)Nc3cnccc3N3CCC[C@H](N)C3)c(N)cc2cc1F [Example 14, 3-Amino-N-{4-[(3S)-3-aminopiperidin-1-yl]pyridin-3-yl}-7-ethyl-6-fluoroquinoline-2-carboxamide] | ≤ 100 | ≤ 100 | 100 to 1000 |
| COC(=O)N[C@@H]1[C@H](N)CN(c2ccncc2NC(=O)c2nc3cc(N4CCOCC4)ccc3cc2N)C[C@@H]1C [Example 59, Methyl [(3R,4S,5S)-3-amino-1-(3-{[(3-amino-7-morpholin-4-ylquinolin-2-yl)carbonyl]amino}pyridin-4-yl)-5-methylpiperidin-4-yl]carbamate] | ≤ 100 | ≤ 100 | 1000 to 10000 |
| CCc1ccc2cc(N)c(C(=O)Nc3cnc4c(c3N3CCC[C@H](N)C3)CCO4)nc2c1 [Example 24, (S)-3-Amino-N-(4-(3-aminopiperidin-1-yl)-2,3-dihydrofuro[2,3-b]pyridin-5-yl)-7-ethylquinoline-2-carboxamide] | ≤ 100 | ≤ 100 | 100 to 1000 |
| CCc1ccc2cc(N)c(C(=O)Nc3cnc(OC)cc3N3CCC[C@H](N)C3)nc2c1 [Example 31, 3-Amino-N-{4-[(3S)-3-aminopiperidin-1-yl]-6-methoxypyridin-3-yl}-7-ethylquinoline-2-carboxamide] | > 40 | ≤ 100 | > 2000 |
| Nc1cc2ccccc2nc1C(=O)Nc1cnccc1N1CCC[C@H](N)C1 [Example 11, 3-Amino-N-{4-[(3S)-3-aminopiperidin-1-yl]pyridin-3-yl}quinoline-2-carboxamide] | ≤ 100 | ≤ 100 | 100 to 1000 |
| C[C@H]1CN(c2ccncc2NC(=O)c2nc3cc(C4CCN(C)CC4)ccc3cc2N)C[C@@H](N)[C@@H]1O [Example 42, 3-Amino-N-{4-[(3R,4R,5S)-3-amino-4-hydroxy-5-methylpiperidin-1-yl]pyridin-3-yl}-7-(1-methylpiperidin-4-yl)quinoline-2-carboxamide] | ≤ 100 | ≤ 100 | ≤ 100 |
| CCc1cc2nc(C(=O)Nc3cnccc3N3CCC[C@H](N)C3)c(N)cc2cn1 [Example 27, 3-Amino-N-{4-[(3S)-3-aminopiperidin-1-yl]pyridin-3-yl}-7-ethyl-1,6-naphthyridine-2-carboxamide] | ≤ 100 | ≤ 100 |  |
| CCOc1ccc2cc(N)c(C(=O)Nc3cnccc3N3CCC[C@H](N)C3)nc2n1 [Example 25, 3-Amino-N-{4-[(3S)-3-aminopiperidin-1-yl]pyridin-3-yl}-7-ethoxy-1,8-naphthyridine-2-carboxamide] | ≤ 100 | ≤ 100 |  |
